The subject of data set [1] is Mycobacterium tuberculosis. Put plainly: Antitubercular activity against Mycobacterium tuberculosis H37Rv by resazurin microtiter assay. The data set is classed as functional. (In general: The colour change of resazurin is a common sign of viable cells or microbes.)
Data set [2] is described as follows: Toxicity in African green monkey Vero cells. The conditions noted are these: chlorocebus sabaeus. The data set is classed as cell-based.
Data set [3] in a line: Selectivity index, ratio of CC50 for African green monkey Vero cells to MIC for Mycobacterium tuberculosis H37Rv. The class given is functional.

≈ marks a conversion by molar mass, not a printed value.

This is an account of results in ChEMBL document CHEMBL1268819, “Design, synthesis, and biological evaluation of 4-(5-nitrofuran-2-yl)prop-2-en-1-one derivatives as potent antitubercular agents” (Bioorg Med Chem Lett, 2010).

In data set [1], `O=C(/C=C/c1ccc([N+](=O)[O-])o1)c1ccc(Br)cc1` had an MIC of 3.88 µM (≈ 1.25 µg/mL). Besides, the midpoint of cytotoxicity in data set [2], the CC50, lay at 354 µM.

Consider `O=C(/C=C/c1ccc([N+](=O)[O-])o1)c1ccc(Cl)cc1`, for which, in data set [1], the MIC turned out to be 4.5 µM (≈ 1.25 µg/mL). The compound further yielded a CC50 in data set [2] of 558 µM.

As to `O=C(/C=C/c1ccc([N+](=O)[O-])o1)c1ccccc1`, the MIC in data set [1] came out at 5.51 µM (≈ 1.34 µg/mL). Moreover, in data set [2], the CC50 worked out at 444 µM.

Turning to `O=C(/C=C/c1ccc([N+](=O)[O-])o1)c1ccc(F)cc1`, the MIC in data set [1] was 4.17 µM (≈ 1.09 µg/mL). The CC50 in data set [2] is 463 µM.

For `O=C(/C=C/c1ccco1)c1ccc(F)cc1`, the MIC in data set [1] is more than 93.9 µM. The same compound showed a CC50 in data set [2] of 661 µM.

In turn, `Cc1ccc(C(=O)/C=C/c2ccc([N+](=O)[O-])o2)cc1` gave an MIC in data set [1] of 4.35 µM (≈ 1.12 µg/mL). Further, the CC50 in data set [2] was found to be 439 µM.

In turn, `COc1ccc(C(=O)/C=C/c2ccc([N+](=O)[O-])o2)cc1` yielded an MIC in data set [1] of 3.84 µM (≈ 1.05 µg/mL). Besides, the CC50 in data set [2] was 571 µM.

In data set [1], `O=C(/C=C/c1ccc([N+](=O)[O-])o1)c1ccc(Cl)cc1Cl` came in with an MIC of 14.1 µM (≈ 4.41 µg/mL). For the same compound, half-maximal cytotoxicity in data set [2] (CC50) was put at 417 µM.

In data set [1], `O=C(/C=C/c1ccc([N+](=O)[O-])o1)c1cccs1` came in with an MIC of 5.86 µM (≈ 1.46 µg/mL). For the same compound, in data set [2], the CC50 worked out at 742 µM.

Take `O=C(/C=C/c1ccc([N+](=O)[O-])o1)c1ccco1`: the MIC in data set [1] was determined as 8.28 µM (≈ 1.93 µg/mL). The same compound registered a CC50 in data set [2] of 776 µM.

The compound `O=C(/C=C/c1ccc([N+](=O)[O-])s1)c1ccc(N2CCCCC2)cc1` registered an MIC in data set [1] of 15.6 µM (≈ 5.35 µg/mL). Further, the CC50 in data set [2] was 404 µM.

The compound `COc1cc(C(=O)/C=C/c2ccc([N+](=O)[O-])o2)cc(OC)c1OC` returned an MIC in data set [1] of 6.06 µM (≈ 2.02 µg/mL). Besides, in data set [2], the CC50 was found to be 384 µM.

Compound `O=C(/C=C/c1ccc([N+](=O)[O-])o1)c1cc2ccccc2oc1=O` yielded an MIC in data set [1] of 29.9 µM (≈ 9.32 µg/mL). The compound further registered a CC50 in data set [2] of 360 µM.

In data set [1], `O=C(/C=C/c1ccc([N+](=O)[O-])o1)c1ccc(OCc2ccccc2)cc1` gave an MIC of 3.29 µM (≈ 1.15 µg/mL). This compound also yielded a CC50 in data set [2] of 515 µM.

Regarding `O=C(/C=C/c1ccc([N+](=O)[O-])o1)c1ccc(OCc2ccc(F)cc2)cc1`, in data set [1], the MIC was 19.8 µM (≈ 7.27 µg/mL). This compound also yielded a CC50 in data set [2] of 430 µM.

`COc1ccc(COc2ccc(C(=O)/C=C/c3ccc([N+](=O)[O-])o3)cc2)cc1` yielded an MIC in data set [1] of 1.85 µM (≈ 0.702 µg/mL). In data set [2], the CC50 worked out at 311 µM.

In turn, `O=C(/C=C/c1ccc([N+](=O)[O-])o1)c1ccc(OCc2ccc(Cl)cc2Cl)cc1` returned an MIC in data set [1] of more than 46.6 µM. Besides, the CC50 in data set [2] is 340 µM.

Take `O=C(/C=C/c1ccc([N+](=O)[O-])o1)c1ccc(OCc2cccc(Cl)c2)cc1`: the MIC in data set [1] came out at 6.1 µM (≈ 2.34 µg/mL). The CC50 in data set [2] is 307 µM.

`O=C(/C=C/c1ccc([N+](=O)[O-])o1)c1ccc(OCc2ccc(OC(F)(F)F)cc2)cc1` came in with an MIC in data set [1] of 1.66 µM (≈ 0.719 µg/mL). In data set [2], this compound returned a CC50 of 335 µM.

In data set [1], `C=C(C)COc1ccc(C(=O)/C=C/c2ccc([N+](=O)[O-])o2)cc1` displayed an MIC of 5.59 µM (≈ 1.75 µg/mL). For the same compound, the CC50 in data set [2] is 393 µM.

Consider `O=C(/C=C/c1ccc([N+](=O)[O-])o1)c1ccc(N2CCN(Cc3ccccc3)CC2)cc1`, for which the MIC in data set [1] is more than 31.7 µM. For the same compound, the CC50 in data set [2] turned out to be 299 µM.

In the case of `O=C(/C=C/c1ccc([N+](=O)[O-])o1)c1ccc(N2CCN(C/C=C/c3ccccc3)CC2)cc1`, the MIC in data set [1] was more than 32.7 µM. Also, in data set [2], it took 343 µM to reach half-maximal cytotoxicity (CC50).

Turning to `CCN(CC)c1ccc(C(=O)/C=C/c2ccc([N+](=O)[O-])o2)cc1`, 0.48 µM (≈ 0.151 µg/mL) was the least that counted as inhibitory in data set [1] (MIC). Besides, in data set [2], the midpoint of cytotoxicity, the CC50, lay at 334 µM.

With `O=C(/C=C/c1ccc([N+](=O)[O-])o1)c1ccc(N2CCCCC2)cc1`, in data set [3], the “Selectivity Index” value is more than 1800. For the same compound, the MIC in data set [1] was 0.19 µM (≈ 0.062 µg/mL). For the same compound, the CC50 in data set [2] was 349 µM.

Take `O=C(/C=C/c1ccc([N+](=O)[O-])o1)c1ccc(N2CCOCC2)cc1`: in data set [1], the MIC turned out to be 0.38 µM (≈ 0.125 µg/mL). Moreover, it took 387 µM to reach half-maximal cytotoxicity in data set [2] (CC50).

`NNC(=O)c1ccncc1` [ISONIAZID] gave an MIC in data set [1] of 1.8 µM (≈ 0.247 µg/mL). The compound also displayed a CC50 in data set [2] of more than 500 µM.

As usually defined, the MIC is the lowest concentration that inhibits growth of the organism. Broadly, the CC50 is the concentration that lowers cell viability or growth by half.
